The supplement of paper PMC10307832

Columns and labels:
Assay in all cases: relative viability (nuclei count vs DMSO), 5 days (fraction); higher = more cells survive
[1] = compound: CC1=CC=C(C=C1)C(=O)CN2C3=C(CCCC3)SC2=N [Pifithrin_alpha] + C[C@@H](Oc1cc(-c2cnn(C3CCNCC3)c2)cnc1N)c1c(Cl)ccc(F)c1Cl [Crizotinib] (partner 1 µM)
In short: (§1)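 Each reported value is a median over duplicate plates. It expresses relative viability: treated-well nuclei count divided by vehicle-well nuclei count. Lung cancer cell lines in 1536-well plates were dosed by pin tool a day after seeding, alone with one drug or with a fixed anchor-drug dose plus five library-drug doses (not always all listed) in √10 steps, and nuclei were counted after 5 days.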

[2] = compound: CC1=CC=C(C=C1)C(=O)CN2C3=C(CCCC3)SC2=N [Pifithrin_alpha] + N=C(N)NC(=N)NCCc1ccccc1 [Phenformin] (partner 250 µM)
In short: as §1

[3] = compound: CNC(=O)c1ccccc1Sc1ccc2c(/C=C/c3ccccn3)n[nH]c2c1 [Axitinib] + Cc1nc(Nc2ncc(C(=O)Nc3c(C)cccc3Cl)s2)cc(N2CCN(CCO)CC2)n1 [Dasatinib] (partner 0.075 µM)
In short: as §1

[4] = compound: Nc1nc(Nc2ccc3c(c2)CC[C@@H](N2CCCC2)CC3)nn1-c1cc2c(nn1)-c1ccccc1CCC2 [Bemcentinib] + CC(C)C[C@H](NC(=O)[C@H](Cc1ccccc1)NC(=O)c1cnccn1)B(O)O [Bortezomib] (partner 0.002 µM)
In short: as §1

Cell Line | relative viability ([1]; first compound 1 µM) | relative viability ([1]; first compound 3.162 µM) | relative viability ([1]; first compound 10 µM) | relative viability ([1]; first compound 31.62 µM) | relative viability ([1]; first compound 100 µM) | relative viability ([2]; first compound 1 µM) | relative viability ([2]; first compound 3.162 µM) | relative viability ([2]; first compound 10 µM) | relative viability ([2]; first compound 100 µM) | relative viability ([3]; first compound 0.005 µM) | relative viability ([3]; first compound 0.01581 µM) | relative viability ([3]; first compound 0.05 µM) | relative viability ([3]; first compound 0.1581 µM) | relative viability ([3]; first compound 0.5 µM) | relative viability ([4]; first compound 0.04 µM) | relative viability ([4]; first compound 0.1265 µM) | relative viability ([4]; first compound 0.4 µM) | relative viability ([4]; first compound 1.265 µM) | relative viability ([4]; first compound 4 µM) | relative viability ([2]; first compound 31.62 µM)
NCI-H2087 | 0.95 | 0.796 | 0.818 | 0.706 | 0.895 | 0.356 | 0.488 | 0.485 | 0.451 | 0.852 | 1.01 | 0.908 | 0.837 | 0.861 | 0.736 | 1.09 | 0.994 | 0.61 | 0.769 | –
NCI-H2126 | 1.03 | 1.05 | 0.886 | 0.768 | 0.953 | 0.475 | 0.498 | 0.499 | 0.427 | 0.625 | 0.635 | 0.64 | 0.565 | 0.578 | 1.11 | 1.07 | 1.18 | 1.16 | 1.13 | 0.464
NCI-H2228 | 0.3 | 0.424 | 0.432 | 0.263 | 0.376 | 0.312 | 0.265 | 0.374 | 0.205 | 0.471 | 0.616 | 0.558 | 0.476 | 0.697 | – | 1.04 | 1.12 | 0.93 | 1.08 | 0.256
NCI-H2347 | 0.647 | 0.868 | 0.696 | 0.55 | 0.643 | 0.452 | 0.471 | 0.394 | 0.543 | 0.304 | 0.324 | 0.288 | 0.308 | 0.323 | 0.831 | 1.03 | 0.967 | 0.901 | 1.11 | 0.416
NCI-H2405 | 0.821 | 0.815 | 0.796 | 0.741 | 0.822 | 0.371 | 0.504 | 0.481 | 0.479 | 0.203 | 0.202 | 0.232 | 0.214 | 0.199 | 1.01 | 0.853 | 0.985 | 1.07 | 0.938 | 0.463
NCI-H3122 | 0.288 | 0.323 | 0.291 | 0.296 | 0.321 | 0.376 | 0.356 | 0.327 | 0.283 | 0.881 | 0.819 | 0.895 | 0.724 | 0.735 | 0.911 | 1.04 | 0.991 | 0.937 | 0.994 | –
PC-3 [JPC-3] | 0.98 | 0.998 | 0.884 | 0.814 | 0.849 | 0.497 | 0.482 | 0.409 | 0.488 | 1.07 | 1.01 | 1.02 | 1 | 1.01 | 0.803 | 0.948 | 0.8 | 0.906 | 0.869 | 0.47
PC-14 | 0.998 | 0.827 | 0.741 | 0.699 | 0.703 | 0.536 | 0.567 | 0.525 | 0.413 | 0.247 | 0.227 | 0.297 | 0.257 | 0.314 | 0.86 | 0.849 | 0.934 | 0.911 | 1 | 0.406
RERF-LC-KJ | 0.824 | 0.69 | 0.754 | 0.696 | 0.659 | 0.454 | 0.402 | 0.368 | 0.263 | 0.853 | 0.898 | 0.998 | 0.822 | 0.904 | 1.1 | 1.29 | 1.3 | 1.21 | 1.09 | 0.316
SK-LU-1 | 1.01 | 1.03 | 0.951 | 0.824 | 1.02 | 0.511 | 0.624 | 0.49 | 0.625 | 0.163 | 0.186 | 0.171 | 0.181 | 0.215 | 1.02 | 1.35 | 1.38 | 1.3 | 1.25 | –
SW 1573 | 0.789 | 0.753 | 0.857 | 0.664 | 0.656 | 0.357 | 0.39 | 0.436 | 0.346 | 0.586 | 0.564 | 0.796 | 0.365 | 0.424 | 1.09 | 0.973 | 1.14 | 0.97 | 1.15 | 0.37
UMC-11 | 0.64 | 0.758 | 0.63 | 0.515 | 0.757 | 0.312 | 0.337 | 0.322 | 0.303 | 0.447 | 0.442 | 0.448 | 0.444 | 0.54 | 0.413 | 0.771 | 0.724 | 0.428 | 0.682 | 0.287
